Like-named read-outs stand apart in the source and are kept apart here.
Experiments:
[1] = not given; remark: listed apart in the source
[2] = not given; remark: listed apart in the source
[3] = system: rat hippocampal brain slices; assay: Neuroprotection in rat hippocampal brain slices after oxygen glucose deprivation (OGD); assay type: in vivo; details: 5-min OGD; AQ by direct hippocampal injection; vitamin D in diet 0.0125 mg/kg for ~10 days; preliminary results
[4] = apoaequorin 10 mg daily, N=56, eight days to 30 days

Row | Substance | memory performance (memory screening tool) (56 participants, day 8 and day 30) | memory improvement (apoaequorin 10 mg daily, 56 participants, after 30 days) | participants with improvement in general memory [4] [%] | participants with improvement in remembering driving directions [4] [%] | participants with improvement in retaining information [4] [%] | participants with improvement in word recall [4] [%] | participants discontinued the study due to an adverse event (in vivo) | participants with an increase in cognitive ability ([1]; 32 patients, 90 days) | cognition (standardized cognitive battery) ([1]; 32 patients, day 8, 30, 60-90) | participants discontinued the study due to an adverse event ([1]; in vivo) | overall quality of sleep, energy, mood, pain, general health (change from baseline of scores) ([2]; 32 patients, 90 day period, open-label) | participants discontinued the study due to an adverse event ([2]; in vivo) | cell death (dead and dying, blue stained cells) after OGD [3]
1 | apoaequorin | improved memory performance as early as eight days but with statistically greater improvement at day 30 | statistically significant improvement in memory | 57 | 84 | 51 | 66 | No participants discontinued the study due to an adverse event | Greater than 51% | improved cognition as early as eight days but with statistically greater improvement at day 30, as well as 60-90 | No participants discontinued the study due to an adverse event | increase | No participants discontinued the study due to an adverse event | few er dead and dying cells
2 | vitamin D [reference compound] | – | – | – | – | – | – | – | – | – | – | – | – | fewer dead or dying cells

From US12005096B2, “Apoaequorin and vitamin d-containing compositions and methods of using same” (QUINCY BIOSCIENCE, LLC, priority 2016, dated 2024)
